Measured values as given in patent US9453014B2, “Cyclic amide derivatives as inhibitors of 11-β-hydroxysteroid dehydrogenase and uses thereof” (CONNEXIOS LIFE SCIENCES PVT. LTD., priority 2011, dated 2016).

Biological target: T1, human full length HSD11 β 1 (Homo sapiens, UniProt P28845)
T1 construct: transient expression of human full length HSD11 β 1 expression vector; host or cells: CHO cells (transient transfection)
Assay: In Vitro HSD11β1 Inhibition Assay
Format: cell-based
Conditions: CHO cells transiently expressing human HSD11β1; 200 nM cortisone+500 uM NADPH overnight; cortisone to cortisol by LC/MS-MS; read-out: 11βHSD1 (IC50)
Method in brief: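 CHO cells transiently transfected with human full-length HSD11β1 were re-seeded after 24 h and, 24 h later, incubated overnight with 200 nM cortisone plus 500 uM NADPH and inhibitor. Cortisone-to-cortisol conversion was measured by LC/MS-MS. IC50 from an 8-point log concentration–inhibition curve.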

T1 sequence (P28845 whole entry): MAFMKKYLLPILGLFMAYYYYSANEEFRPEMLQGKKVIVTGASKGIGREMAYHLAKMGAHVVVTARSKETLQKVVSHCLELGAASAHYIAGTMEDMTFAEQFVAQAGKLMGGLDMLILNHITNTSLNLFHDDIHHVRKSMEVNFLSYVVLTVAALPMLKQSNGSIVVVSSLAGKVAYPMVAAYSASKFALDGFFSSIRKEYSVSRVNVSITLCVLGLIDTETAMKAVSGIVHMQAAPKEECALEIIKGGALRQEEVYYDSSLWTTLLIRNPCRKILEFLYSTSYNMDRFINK

SMILES	IC50
CC(CC(=O)N1CCCC2CC(C(=O)O)CCC21)c1c[nH]c2cccc(Cl)c12 (stereo not shown) [Compound 228, 1-[3-(4-chloro-1H-indol-3-yl)butanoyl]decahydroquinoline-6-carboxylic acid]	> 250 nM
CC(CC(=O)N1CCCC2CC(C(=O)O)CCC21)c1c[nH]c2cccc(-c3ccco3)c12 (stereo not shown) [Compound 229, 1-{3-[4-(furan-2-yl)-1H-indol-3-yl]butanoyl}decahydroquinoline-6-carboxylic acid]	100 to 150 nM
CC(CC(=O)N1C(C)CCC2C(C(=O)O)CCCC21)c1c[nH]c2cccc(C3CC3)c12 (stereo not shown) [Compound 230, 1-[3-(4-cyclopropyl-1H-indol-3-yl)butanoyl]-2-methyldecahydroquinolin-5-carboxylic acid]	150 to 200 nM
CC(CC(=O)N1C(C)CCC2C(C(=O)O)CCCC21)c1c[nH]c2cccc(-c3ccco3)c12 (stereo not shown) [Compound 231, 1-{3-[4-(furan-2-yl)-1H-indol-3-yl]butanoyl}-2-methyldecahydroquinoline-5-carboxylic acid]	150 to 200 nM
CC(CC(=O)N1C(C)CCC2C(C(=O)O)CCCC21)c1c[nH]c2cccc(-c3cccs3)c12 (stereo not shown) [Compound 232, 2-methyl-1-{3-[4-(thiophen-2-yl)-1H-indol-3-yl]butanoyl}decahydroquinoline-5-carboxylic acid]	150 to 200 nM
CC(CC(=O)N1C(C)CCC2C(C(=O)O)CCCC21)c1c[nH]c2cccc(-c3cccs3)c12 (stereo not shown) [Compound 233, 2-methyl-1-{3-[4-(thiophen-2-yl)-1H-indol-3-yl]butanoyl}decahydroquinoline-5-carboxylic acid]	> 250 nM
CC(CC(=O)N1C(C)CCC2C(C(=O)O)CCCC21)c1c[nH]c2cccc(Cl)c12 (stereo not shown) [Compound 234, 1-[3-(4-chloro-1H-indol-3-yl)butanoyl]-2-methyldecahydroquinoline-5-carboxylic acid]	> 250 nM
CC(CC(=O)N1CCC(=O)C2CCCCC21)c1c[nH]c2cccc(Cl)c12 (stereo not shown) [Compound 235, 1-[3-(4-chloro-1H-indol-3-yl)butanoyl]octahydroquinolin-4(1H)-one]	< 100 nM
Cc1ccc(-c2cccc3[nH]cc(C(C)CC(=O)N4CCCC5C(C(=O)O)CCCC54)c23)o1 (stereo not shown) [Compound 236, 1-{3-[4-(5-methylfuran-2-yl)-1H-indol-3-yl]butanoyl}decahydroquinoline-5-carboxylic acid]	100 to 150 nM
CC(CC(=O)N1CCCC2C1CCCC2(C)C(=O)O)c1c[nH]c2cccc(C3CC3)c12 (stereo not shown) [Compound 237, 1-[3-(4-cyclopropyl-1H-indol-3-yl)butanoyl]-5-methyldecahydroquinoline-5-carboxylic acid]	150 to 200 nM
CC(CC(=O)N1CCCC2C(C(=O)O)CCCC21)c1c[nH]c2cccc(-c3ccccn3)c12 (stereo not shown) [Compound 238, 1-{3-[4-(pyridin-2-yl)-1H-Indol-3-yl]butanoyl}decahydroquinoline-5-carboxylic acid]	> 250 nM
Cc1cc(-c2cccc3[nH]cc(C(C)CC(=O)N4CCCC5C(C(=O)O)CCCC54)c23)on1 (stereo not shown) [Compound 239, 1-{3-[4-(3-methyl-1,2-oxazol-5-yl)-1H-indol-3-yl]butanoyl}decahydroquinoline-5-carboxylic acid]	> 250 nM
CC(CC(=O)N1CCCC2C(c3nnn[nH]3)CCCC21)c1c[nH]c2cccc(C3CC3)c12 (stereo not shown) [Compound 240, 3-(4-cyclopropyl-1H-indol-3-yl)-1-[5-(1H-tetrazol-5-yl)octahydroquinolin-1(2H)-yl]butan-1-one]	> 250 nM
COn1cc(C(C)CC(=O)N2CCCC3C(C(=O)O)CCCC32)c2c(C3CC3)cccc21 (stereo not shown) [Compound 241, 1-[3-(4-cyclopropyl-1-methoxy-1H-indol-3-yl)butanoyl]decahydroquinoline-5-carboxylic acid]	> 250 nM
COCn1cc(C(C)CC(=O)N2CCCC3C(C(=O)O)CCCC32)c2c(C3CC3)cccc21 (stereo not shown) [Compound 242, 1-{3-[4-cyclopropyl-1-(methoxymethyl)-1H-indol-3-yl]butanoyl}decahydroquinoline-5-carboxylic acid]	> 250 nM
CC(CC(=O)N1CCCC2C(C(=O)O)CCCC21)c1c[nH]c2cccc(-c3ccc(F)cc3)c12 (stereo not shown) [Compound 243, 1-{3-[4-(4-fluorophenyl)-1H-indol-3-yl]butanoyl}decahydroquinoline-5-carboxylic acid]	< 100 nM
CC(CC(=O)N1CCCC2C(C(=O)O)CCCC21)c1c[nH]c2cccc(-c3cccn3C)c12 (stereo not shown) [Compound 244, 1-{3-[4-(1-methyl-1H-pyrrol-2-yl)-1H-indol-3-yl]butanoyl}decahydroquinoline-5-carboxylic acid]	> 250 nM
CC(CC(=O)N1CCCC2C(C(=O)O)CCCC21)c1c[nH]c2cccc(-c3ccc(F)o3)c12 (stereo not shown) [Compound 245, 1-{3-[4-(5-fluorofuran-2-yl)-1H-indol-3-yl]butanoyl}decahydroquinoline-5-carboxylic acid]	< 100 nM
CC(CC(=O)N1CCCC2CCCCC21)c1c[nH]c2cccc(-c3ccc(C(=O)O)o3)c12 (stereo not shown) [Compound 246, 5-{3-[4-(octahydroquinolin-1(2H)-yl)-4-oxobutan-2-yl]-1H-indol-4-yl}furan-2-carboxylic acid]	> 250 nM

SMILES	IC50
CC(CC(=O)N1CCCC2C(C(=O)NCC(=O)O)CCCC21)c1c[nH]c2cccc(C3CC3)c12 (stereo not shown) [Compound 247, N-({1-[3-(4-cyclopropyl-1H-indol-3-yl)butanoyl]decahydroquinolin-5-yl}carbonyl)glycine]	> 250 nM
CC(CC(=O)N1CCCC2C(C(=O)O)CCCC21)c1c(C#N)[nH]c2cccc(C3CC3)c12 (stereo not shown) [Compound 252, 1-[3-(2-cyano-4-cyclopropyl-1H-indol-3-yl)butanoyl]decahydroquinoline-5-carboxylic acid]	> 250 nM
CC(CC(=O)N1CCCC2C(C(=O)O)CCCC21)c1c[nH]c2cccc(-c3ccc(F)cc3)c12 (stereo not shown) [Compound 253, 1-{3-[4-(4-fluorophenyl)-1H-indol-3-yl]butanoyl}decahydroquinoline-5-carboxylic acid]	< 100 nM
CC(CC(=O)N1CCCC2C(C(=O)O)CCCC21)c1c[nH]c2cccc(-c3ccc(F)cc3)c12 (stereo not shown) [Compound 254, 1-{3-[4-(4-fluorophenyl)-1H-indol-3-yl]butanoyl}decahydroquinoline-5-carboxylic acid]	> 250 nM
CC(CC(=O)N1CCCC2C(C(=O)O)CCCC21)c1c[nH]c2cccc(-c3ccccc3F)c12 (stereo not shown) [Compound 257, 1-{3-[4-(2-fluorophenyl)-1H-indol-3-yl]butanoyl}decahydroquinoline-5-carboxylic acid]	100 to 150 nM
CC(CC(=O)N1CCCC2C(C(=O)O)CCCC21)c1c(C#N)n(C)c2cccc(C3CC3)c12 (stereo not shown) [Compound 258, 1-[3-(2-cyano-4-cyclopropyl-1-methyl-1H-indol-3-yl)butanoyl]decahydroquinoline-5-carboxylic acid]	> 250 nM
CC(CC(=O)N1CCCC2C(C(=O)O)CCCC21)c1c[nH]c2cccc(-c3cccc(F)c3)c12 (stereo not shown) [Compound 259, 1-{3-[4-(3-fluorophenyl)-1H-indol-3-yl]butanoyl}decahydroquinoline-5-carboxylic acid]	150 to 200 nM
O=C(O)C1CCCC2C1CCCN2C(=O)CSc1c[nH]c2cccc(C3CC3)c12 (stereo not shown) [Compound 260, 1-{[(4-cyclopropyl-1H-indol-3-yl)sulfanyl]acetyl}decahydroquinoline-5-carboxylic acid]	> 250 nM
CC(CC(=O)N1CCCC2C(C(=O)O)CCCC21)c1cn(C2CC2)c2cccc(Cl)c12 (stereo not shown) [Compound 261, 1-[3-(4-chloro-1-cyclopropyl-1H-indol-3-yl)butanoyl]decahydroquinoline-5-carboxylic acid]	200 to 250 nM
CC(CC(=O)N1CCCC2C(C(=O)O)CCCC21)c1c[nH]c2cccc(-c3ncccc3F)c12 (stereo not shown) [Compound 262, 1-{3-[4-(3-fluoropyridin-2-yl)-1H-indol-3-yl]butanoyl}decahydroquinoline-5-carboxylic acid]	> 250 nM
CC(CC(=O)N1CCCC2C(C(=O)O)CCCC21)c1cn(C)c2cccc(-c3ccc(F)o3)c12 (stereo not shown) [Compound 263, 1-{3-[4-(5-fluorofuran-2-yl)-1-methyl-1H-indol-3-yl]butanoyl}decahydroquinoline-5-carboxylic acid]	< 100 nM
COc1cccc2[nH]cc(C(C)CC(=O)N3CCCC4C(C(=O)O)CCCC43)c12 (stereo not shown) [Compound 264, 1-[3-(4-methoxy-1H-indol-3-yl)butanoyl]decahydroquinoline-5-carboxylic acid]	> 250 nM
O=C(O)C1CCCC2C1CCCN2C(=O)CC(O)(c1c[nH]c2ccccc12)C(F)(F)F (stereo not shown) [Compound 265, 1-[4,4,4-trifluoro-3-hydroxy-3-(1H-Indol-3-yl)butanoyl]-decahydroquinoline-5-carboxylic acid]	> 250 nM
CCn1cc(C(C)CC(=O)N2CCCC3C(C(=O)O)CCCC32)c2c(Cl)cccc21 (stereo not shown) [Compound 266, 1-[3-(4-chloro-1-ethyl-1H-indol-3-yl)butanoyl]decahydroquinoline-5-carboxylic acid]	> 250 nM
CC(C(=O)N1CCCC2C(C(=O)O)CCCC21)c1c[nH]c2cccc(C3CC3)c12 (stereo not shown) [Compound 267, 1-(2-(4-cyclopropyl-1H-indol-3-yl)propanoyl)decahydroquinoline-5-carboxylic acid]	> 250 nM
Cn1nc(CCC(=O)N2CCCC3C(C(=O)O)CCCC32)c2c(C3CC3)cccc21 (stereo not shown) [Compound 268, 1-(3-(4-cyclopropyl-1-methyl-1H-indazol-3-yl)propanoyl) decahydroquinoline-5-carboxylic acid]	> 250 nM
CC(C)(Sc1nc2ccccc2s1)C(=O)N1CCCC2CCCCC21 (stereo not shown) [Example 74, 2-(1,3-benzothiazol-2-ylsulfanyl)-2-methyl-1-(octahydroquinolin-1(2H)-yl)propan-1-one]	> 250 nM
O=C(CCc1nc2ccccc2s1)N1CCCC2CCCCC21 (stereo not shown) [Example 75, 3-(1,3-benzothiazol-2-yl)-1-(octahydroquinolin-1(2H)-yl)propan-1-one]	< 100 nM
